Experimental findings from patent US5462933A, “Modified bile acid conjugates, and their use as pharmaceuticals” (Hoechst Aktiengesellschaft, priority 1989, dated 1995) are described below.

Data set [1] can be described thus: In vivo perfused liver: absorption from portal vein blood and excretion into the bile. The settings on record: after W (Chlorambucil) into mesenteric vein. Also noted: species or system rat. How it is done: In order to investigate a selective absorption of bile acid derivatives into the liver and their hepatotropic action, the appropriate derivatives were injected as a bolus into a mesenteric vein of anesthetized rats and the excretion of these derivatives and the corresponding active compounds or active compound metabolites into the bile was analysed.
Male Sprague-Dawley rats (300-500 g bodyweight) had their food withdrawn and received water ad libitum. After tracheotomy, the abdomen was opened by median section under urethane anesthesia ([…] i.m. urethane 30%). The pylorus was ligated and the bile duct was cannulated by advancing a polyethylene tube (d=0.05 mm) up to the liver and the bile was drained. The volume of secretion was measured at 15 minute intervals. After a preliminary period of 60 minutes, the substances (0.5 ml of a 1 mM solution in 0.9% NaCl solution) were administered into a mesenteric vein in the course of 30 sec and the bile was collected at prestated time intervals (2, 4, 6, 8, 10, 15, 20, 30, 40, 50, 60, 70, 80, 90, 100, 110 and 120 min). The bile acid derivative was administered first, and the appropriate active compound was administered after a collection period of 2 hours. 120 min after administration of test substance, the bladder volume was measured and the urine was also collected. The bile and urine samples were stored on ice during the experiment and then deep-frozen.
Each 10 μl bile sample was applied to TLC plates (10×20 cm, silica gel 60 specific layer thickness 0.25 mm, No. 37581 Riedel de Haen, Seelze, Federal Republic of Germany) using Microcaps (Drummond, Broomall, USA) and the thin-layer plates were dried in the air for 20 min.
The plates were developed in the following mobile phases: Substance Mobile phase
The constituents of the mobile phases were bought from the usual manufacturers in the highest possible purity grade. After developing and drying the plates, the distribution of the active compounds and the bile acid derivatives, or their metabolites, was determined by densitometry (CD 50 densitometer, DESAGA; Heidelberg). Detection was carried out in reflection mode with linear sampling at the wavelengths 252 nm (chlorambucil/chlorambucil conjugate) or 260 nm (remaining substances).
In order to evaluate the chromatograms, the relative intensity of the bile acid derivatives, the active compounds or the active compound metabolites on a chromatogram was given in surface area units.

Data set [2] addresses T1, Na+-dependent bile acid transport system (Oryctolagus cuniculus, UniProt Q28727).
T1 construct: brush-border membrane vesicles from the ileum of rabbits; from tissue; host or cells: terminal ileum of male New Zealand rabbits, brush-border membrane vesicles
T1 sequence (Q28727 1-347): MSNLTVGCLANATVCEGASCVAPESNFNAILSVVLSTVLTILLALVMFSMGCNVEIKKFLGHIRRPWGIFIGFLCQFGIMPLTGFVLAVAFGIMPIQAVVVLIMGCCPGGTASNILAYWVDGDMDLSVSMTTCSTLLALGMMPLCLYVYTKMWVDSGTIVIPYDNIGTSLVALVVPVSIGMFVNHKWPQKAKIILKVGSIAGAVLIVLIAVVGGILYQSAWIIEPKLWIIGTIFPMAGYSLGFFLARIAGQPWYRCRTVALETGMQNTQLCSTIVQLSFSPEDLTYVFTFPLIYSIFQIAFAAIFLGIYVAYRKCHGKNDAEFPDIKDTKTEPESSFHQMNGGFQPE
The data set is described as follows: Inhibition of Na+-dependent [3H]taurocholate absorption into brush-border membrane vesicles of the ileum. The format is biochemical, rabbit. The settings on record: for IC50: read-out: IC50. How it is done: The preparation of brush-border membrane vesicles from the intestinal cells of the small intestine was carried out using the so-called Mg^2+ precipitation method. Male New Zealand rabbits (2-2.5 kg body weight) were sacrificed by intravenous injection of 0.5 ml of T-61^R. The small intestine was removed and rinsed with ice-cold physiological saline solution. The terminal 3/10 of the small intestine (measured in the oral-rectal direction, i.e. the terminal ileum, which contains the active Na^+ -dependent bile acid transport system) were used for preparation of the brush-border membrane vesicles. The intestines were frozen at -80° C. under nitrogen in plastic bags. The frozen intestines were thawed in a water bath at 30° C. in order to prepare the membrane vesicles. The mucosa was scraped off and suspended in 60 ml of ice-cold 12 mM trys/HCl buffer (pH 7.1)/300 mM mannitol, 5 mM EGTA/10 mg/l of phenylmethylsulfonyl fluoride/1 mg/l of soybean trypsin inhibitor (32 U/mg)/0.5 mg/l of bovine lung trypsin inhibitor (193 U/mg)/5 mg/l of bacitracin. After diluting to 300 ml with ice-cold distilled water, the suspension was homogenized with ice-cooling for 3 minutes at 75% of maximum power using an Ultraturrax (18 rod, IKA Werk Staufen, Federal Republic of Germany). After addition of 3 ml of 1M MgCl2 solution (final concentration 10 mM), the homogenate was allowed to stand at 0° C. for exactly 1 minute. As a result of addition of Mg^2+, the cell membranes aggregate and precipitate with the exception of the brush-border membranes. After centrifugation at 3,000×g (5,000 rpm, SS-34 rotor) for 15 minutes, the precipitate is discarded and the supernatant which contains the brush-border membranes is centrifuged at 26,700×g (15,000 rpm, SS-34 rotor) for 30 minutes. The supernatant was discarded, and the precipitate was rehomogenized in 60 ml of 12 mM tris/HCl buffer (pH 7.1)/60 mM mannitol, 5 mM EGTA using a Potter Elvejhem homogenizer (Braun Melsungen, 900 rpm, 10 strokes). After addition of 0.1 ml of 1M MgCl2 solution and an incubation time of 15 minutes at 0° C., the mixture was again centrifuged at 3,000×g for 15 minutes. The supernatant was then again centrifuged at […] (15,000 rpm, SS-34 rotor) for 30 minutes. The precipitate was taken up in 30 ml of 10 mM tris/hepes buffer (pH 7.4)/300 mM mannitol and homogeneously resuspended by 20 strokes in a Potter Elvejhem homogenizer at 1,000 rpm. After centrifugation at 48,000×g (20,000 rpm, SS-34 rotor) for 30 minutes, the precipitate was taken up in 0.5 to 2 ml of tris/hepes buffer (pH 7.4)/280 mM mannitol (final concentration 20 mg/ml) and resuspended with the aid of a tuberculin syringe using a 27 gauge needle. The vesicles were either used immediately after preparation for transport investigations or stored at -196° C. in liquid nitrogen in 4 mg portions.
The absorption of substrates into brush-border membrane vesicles was determined by means of the so-called membrane filtration technique. 10 μl of the vesicle suspension (100 μg of protein) were pipetted on the wall of a polystyrene incubation tube (11×70 mm) as a drop which contained the incubation medium together with the corresponding ligands (90 μl ). […] The incubation medium was filtered through a polyvinylidene fluoride membrane filter (SYHV LO 4NS, 0.45 μm, 4 mm .phi., Millipore, Eschborn, Federal Republic of Germany). The transport measurement was begun by mixing the vesicles with the incubation medium. […] After the desired incubation time (customarily 1 min), the transport was stopped by addition of 1 ml of ice-cold stop solution (10 mM tris/hepes, (pH 7.4)/150 mM KCl). The resulting mixture was immediately filtered off with suction in a vacuum of 25 to 35 mbar through a membrane filter made of cellulose nitrate (ME 25, 0.45 μm, 25 mm diameter, Schleicher & Schuell, Dassell, Federal Republic of Germany). The filter was subsequently washed with 5 ml of ice-cold Stop solution.

Turning to `O=C(O)CCCc1ccc(N(CCCl)CCCl)cc1` [Chlorambucil, [4-(bis-N-(2'-chloroethyl)-aminophenyl)]-butyric acid, reference compound], the “Conc. of W or a metabolite of W in bile” value was determined as 1012 surface area units in data set [1] (bile at 2 min); 885 surface area units in data set [1] (bile at 4 min); 1044 surface area units in data set [1] (bile at 6 min); 1160 surface area units in data set [1] (bile at 8 min); 810 surface area units in data set [1] (bile at 10 min); 689 surface area units in data set [1] (bile at 15 min). Further, the “Conc. of W or a metabolite of W in bile” value amounted to 1481 surface area units in data set [1] (bile at 20 min); 704 surface area units in data set [1] (bile at 30 min); 511 surface area units in data set [1] (bile at 40 min); 620 surface area units in data set [1] (bile at 60 min); 1769 surface area units in data set [1] (bile at 70 min); 501 surface area units in data set [1] (bile at 80 min). Further, the “Conc. of W or a metabolite of W in bile” value in data set [1] (bile at 90 min) is reported as 813 surface area units; in data set [1] (bile at 100 min) it was 523 surface area units; in data set [1] (bile at 110 min), 604 surface area units; in data set [1] (bile at 120 min) it was 531 surface area units.

For orientation: IC25 means the concentration needed for an effect of 25%. Higher therefore signals a need for much substance. One may read the IC75 as the concentration needed for an effect of 75%. A low value points to an effect from little substance. As usually defined, the IC50 is the concentration that gives 50% inhibition. `C[C@H](CCC(=O)O)[C@H]1CC[C@H]2[C@@H]3[C@H](O)C[C@@H]4C[C@@H](OCCNC(=O)[C@@H](C)NC(=O)[C@@H](C)NC(=O)OCc5ccccc5)CC[C@]4(C)[C@H]3C[C@H](O)[C@]12C` [Example 122, Z-D-Ala-D-Ala-NH--(CH2)2 --GS--OH]: in data set [2], the 25% effect level (IC25) was put at 19 µM, the concentration for an effect of 75% (IC75) turned out to be 237 µM and the 50% inhibitory concentration (IC50) turned out to be 107 µM.

As to `CC(C)c1nc(-c2ccccc2)cc(-c2ccc(F)cc2)c1/C=C/[C@@H]1C[C@@H](O)CC(=O)O1` [Example 125, reference compound], in data set [2], the 25% effect level (IC25) was put at 12 µM, the IC75 was determined as 104 µM and the IC50 worked out at 46 µM.

With `C[C@H](CCC(=O)NCCS(=O)(=O)O)[C@H]1CC[C@H]2[C@@H]3[C@H](O)C[C@@H]4C[C@H](O)CC[C@]4(C)[C@H]3CC[C@]12C` [Taurochenodeoxycholate, reference compound], in data set [2], the IC50 is 23 µM.

As for `C[C@H](CCC(=O)NCCS(=O)(=O)O)[C@H]1CC[C@H]2[C@@H]3CC[C@@H]4C[C@H](O)CC[C@]4(C)[C@H]3CC[C@]12C` [Taurolithocholate, reference compound], in data set [2], the 50% inhibitory concentration (IC50) amounted to 12 µM.

Turning to `C[C@H](CCC(=O)NCCS(=O)(=O)O)[C@H]1CC[C@H]2[C@@H]3CC[C@@H]4C[C@H](OS(=O)(=O)O)CC[C@]4(C)[C@H]3CC[C@]12C` [Taurolithocholate-3-sulfate, reference compound], the IC50 in data set [2] is 245 µM.
